Key:
[1] = tested on: patient positive for anti-NR1 NMDAR antibodies; assay: Positive and Negative Syndrome Scale (PANSS), D-serine clinical trial; format: in vivo, human; settings: for PANSS Negative: week 0 score 18; for PANSS Positive: week 0 score 24; for PANSS General: week 0 score 55; for PANSS Total: week 0 score 97
Excerpt: Out of the seventeen patients that entered the study, the serum of one patient was strongly positive at both serum sample dilutions for the presence of both IgG and IgM classes of anti-NR1 NMDAR antibodies. The patient was a single person having a diagnosis of schizophrenia according to DSM-IV-R criteria (American Psychiatric Association, 2000 Diagnostic and Statistical Manual of Mental Disorders-(DSM-IV-TR), 4th edition. American Psychiatric Association Washington D.C. (Text Revision)). There was no history of mental disorder in the patient's family. The patient had completed post-high school studies and had worked as a secretary. After a period of continuous headaches, for which no organic basis had been found, they had abruptly developed an acute psychosis characterized by grandiose and paranoid delusions, mystical thinking, […] affect and agitation, They had been hospitalized in a psychiatric hospital and underwent treatment with antipsychotic drugs and electroconvulsive therapy with only partial response. The patient had never returned to their previous functional and except for short attempts at living in the community, has been hospitalized ever since. They have been refractory to treatment with various classes of antipsychotic drugs, was not diagnosed with any medical or neurological disorder and was maintained on sulpiride 50 mg/day, citalopram 40 mg/day, lorazepam 1 mg/day and promethazine 50 mg/day. […] DSR is a naturally occurring amino acid that acts in vivo as an obligatory co-agonist at the glycine modulatory site associated with NMDAR. […] Both acute and chronic administration of 1-2 g DSR in humans is known to result in ≥100 times increases in DSR serum levels (Kantrowitz et al., 2010, Schizophr Res121:125-30; Heresco-Levy et al., 2005, Biol Psychiatry 57:577-85). The trial consisted of two periods, starting with a 2 week lead-in/stabilization period (-2-0) following which the patient was entered in the second period of the study which consisted of a 6 week (0-6), open-label, fixed dose therapy phase. During this phase, the patient received adjuvant treatment with DSR, whose dose was increased from 1500 mg/day (week 1) to 2000 mg/day (weeks 2 and 3) to 3000 mg/day (weeks 4 and 5) and to 4000 mg/day (week 6). The doses of the ongoing medication received by the patient remained fixed throughout the study and no changes in medication were performed. The assessment procedures used in the study included clinical and neurocognitive examinations. Motor and psychiatric symptoms as well as side-effects were rated biweekly throughout the study. The following instruments were used: 1) Positive and Negative Syndrome Scale (PANSS) (Kay et al., 1987, Positive and Negative Syndrome Scale (PANSS) rating manual. San Rafael California: Social and Behavioral Sciences Documents); 2) Quality of Life Scale (QLS) (Wilkinson et al., 2000, Self-report quality of life measure for people with schizophrenia: the SQLS. Br J Psychiatry 177:42-6); 3) Abnormal Involuntary Movement Scale (AIMS) (Guy, 1976, ECDEU Assessment Manual for Psychopharmacology-Revised. Rockville, Md.: US Dept. of Health, Education and Welfare); 4) Simpson Angus Scale for Extrapyramidal Symptoms (SAS) (Simpson and Angus, 1970, Acta Psychiatr Scand Suppl. 212:11-9); and 5) Udvalg for […] Undersogelser (UKU) Side Effect Rating Scale (Lingjaerde, et al., 1987 Acta Psychiatr Scand Suppl 334:1-100). In conjunction with UKU ratings, patient's vital signs and body weight were monitored throughout the study.

[2] = tested on: patient positive for anti-NR1 NMDAR antibodies; assay: Wisconsin Card Sort Test (WCST); format: in vivo, human; settings: post-6 weeks D-serine; pre-treatment subject unable to complete task
Method: The trial consisted of two periods, starting with a 2 week lead-in/stabilization period (−2-0) following which the patient was entered in the second period of the study which consisted of a 6 week (0-6), open-label, fixed dose therapy phase. During this phase, the patient received adjuvant treatment with DSR, whose dose was increased from 1500 mg/day (week 1) to 2000 mg/day (weeks 2 and 3) to 3000 mg/day (weeks 4 and 5) and to 4000 mg/day (week 6). The doses of the ongoing medication received by the patient remained fixed throughout the study and no changes in medication were performed.
In addition, cognitive performance was assessed pre- and post DSR treatment. For this purpose, a 1.5-hour neurocognitive assessment battery (nine computerized and two paper/pencil tests) was employed that measures accuracy and speed of performance in major cognition domains, including attention/vigilance, planning, short-term and working memory, decision making, abstraction and mental flexibility. All the tests were formatted like games and puzzles, and were administered to the patient as part of the comprehensive neuropsychiatric assessment at baseline and the end of study. The neurocognitive battery included the 1) Test of Attentional Vigilance (TOAV, (Forbes, 1998, Journal of Clinical Psychology 54:461-476; Greenberg, 1993, Journal of Child Psychology and Psychiatry 34: 1019-30)); 2) Tower of London (TOL, (Shailice, 1982, Specific impairments of planning Philosophical Transactions of the Royal Society of London. Series B, Biological Sciences 298:199-209); 3-4) Digit Span Test (DST, forward and backward (Wechsler 1997, The Wechsler adult intelligence scale-III. San Antonio, Tex.: Psychological Corporation; Kaplan 1991, The WAIS-R as a neuropsychological instrument. San Antonio, Tex.: The Psychological Corporation; Lamar et al., 2007, Neuropsychologia 45:245-54; Lamar et al., 2008, Neuropsychologia 46:2597-601)); 5-6) Corsi Block Tapping Test (CBTT, forward and backward, (Corsi, 1972, Dissertation Abstracts International. 34:819B; Kessels et al., 2000, Applied Neuropsychology 7:252-58, Kessels et al., 2008, Assessment 15:426-34)); 7) Flanker Task (Erikson and Eriksen, 1974; Perception & Psychophysics 25: 249-63, Stins et. al., 2007, Advances in Cognitive Psychology 3:389-96); 8) Time Wall (Perez et al., 1987, Unified Tri-services cognitive performance assessment battery: review and methodology; DTIC Document ADA181697, http://www.dtic.mil/dtic/tr/fulltext/u2/a81697.pdf); and Wisconsin Card Sort Test (WCST, (Berg, 1948, J Gen Psychol39:15-22; Nelson, 1976, Cortex 12:313-24)). […]

N[C@H](CO)C(=O)O [D-serine]
PANSS positive, negative and general psychopathology symptom domains ([1]; during treatment with DSR): improved
Total PANSS score lower by the end of the study ([1]; end of study vs baseline total score of 97): 17%
PANSS Negative ([1]; study week 2): 19
PANSS Positive ([1]; study week 2): 21
PANSS General ([1]; study week 2): 54
PANSS Total ([1]; study week 2): 96
PANSS Negative ([1]; study week 4): 17
PANSS Positive ([1]; study week 4): 21
PANSS General ([1]; study week 4): 51
PANSS Total ([1]; study week 4): 89
PANSS Negative ([1]; study week 6): 16
PANSS Positive ([1]; study week 6): 19
PANSS General ([1]; study week 6): 45
PANSS Total ([1]; study week 6): 80
WCST Category Score [2]: 5
WCST Total correct score % [2]: 81.25%
WCST Total error score % [2]: 18.75%
WCST Trials to complete 1st category [2]: 12
